Data on four compounds can be found in patent US9937139B2 (priority 2014, dated 2018).

The subject of one experiment is B16 melanoma cells. Nature of the experiment: In vivo tumor growth suppression, B16 efficacy model. The conditions noted are these: C57BL/6 mice, s.c. B16 melanoma, IP daily for 12 days; test compound 5 mg/kg and 10 mg/kg (dose of tabulated value not stated), melphalan 2.5 mg/kg.
In experiment [1] the test system is LLCPK cells conditionally expressing hLAT1. Nature of the experiment: LAT1-specific in vitro cytotoxicity, modified clonigenic assay. Format: cell-based. The note with it: 3 μM test compound for 30 min, then 7-10 days proliferation; induced (LAT1+) vs non-induced.

Take `Cc1ccc(N(CCCl)CCCl)cc1C(C)(CN)CC(=O)O` (centres unmarked) [Example 5, 4-Amino-3-[5-[bis(2-chloroethyl)amino]-2-methyl-phenyl]-3-methyl-butanoic acid]: in the experiment with B16 melanoma cells, the “Tumor Growth (% Control) 5 days post-dosing” value amounted to 14 % Control and the “Tumor Growth (% Control) End of dosing” value came out at 13 % Control.
On to `Cc1c(N(CCCl)CCCl)cccc1C(C)(CN)CC(=O)O` (centres unmarked) [Example 6, 4-Amino-3-[3-[bis(2-chloroethyl)amino]-2-methyl-phenyl]-3-methyl-butanoic acid], for which the “percent surviving cells in cells expressing LAT1 compared to cells not expressing LAT1” value in experiment [1] is reported as “about the same”.
As for `Cc1cc(N(CCCl)CCCl)ccc1C(C)(CN)CC(=O)O` (centres unmarked) [Example 7, 4-Amino-3-[4-[bis(2-chloroethyl)amino]-2-methyl-phenyl]-3-methyl-butanoic acid], in the experiment with B16 melanoma cells, the “Tumor Growth (% Control) 5 days post-dosing” value is 50 % Control and the “Tumor Growth (% Control) End of dosing” value was found to be 38 % Control.
On to `N[C@@H](Cc1ccc(N(CCCl)CCCl)cc1)C(=O)O` [Melphalan, melphalan, reference compound], for which, in experiment [1], the “percent surviving cells in cells expressing LAT1 compared to cells not expressing LAT1” value was “about the same”. Moreover, in the experiment with B16 melanoma cells, the “Tumor Growth (% Control) 5 days post-dosing” value worked out at 56 % Control and the “Tumor Growth (% Control) End of dosing” value is on record as 33 % Control.
